# Assay results: US6372727B1, “Metalloporphyrin treatment of neurologic disease” (UAB Research Foundation, priority 1999, dated 2002)
# Values joined by “and” are separate entries in the source; they are usually repeats but may differ in a detail not shown here. Equal entries are not always repeated.
# Legend:
# [1] = MP 5 μM, GSH 2 mM, 0.1 M potassium phosphate pH 7.4, 37° C.
# Protocol: Aliquots (14 μl) were removed at 10 min intervals and added to 1.4 of 0.1 M potassium phosphate, pH 7.4 containing 0.2 mM dithionitrobenzoic acid (Ellman's Reagent) and 50 μM EDTA. GSH concentration was determined by the change in 430 nm absorbance. The extinction coefficient at 430 nm was determined to be 13,900 M^−1cm^−1 using a fresh GSH solution standardized by weight.
# (§1) In order to test the hypothesis that Mn(II)- or Fe(II)-porphyrins would be capable of carrying out two-electron reductions of peroxynitrite and thereby decreasing rather than increasing its reactivity, attempts were made to pre-reduce these transition metal-containing MPs prior to addition of peroxynitrite.
# [2] = Ascorbate oxidation by MPs monitored at 266 nm; format: biochemical; conditions: MP 10 μM, 50 μM ascorbate, 0.1 M potassium phosphate pH 7.4, ± standard error, n=3
# Protocol: as §1
# Table V. Ascorbate oxidation by MPs. MPs (10 μM) were added to stirred cuvettes containing 0.1 M potassium phosphate, pH 7.4 and 50 μM ascorbate. Ascorbate oxidation was monitored at 266 nm (ηm=17,700 M^−1cm^−1). Oxidation rates (±standard errors) were determined by fitting the initial linear portion of each curve and averaging the rates (n=3).
# [3] = Peroxynitrite-mediated nitration of GYA peptide; format: biochemical; conditions: 2 mM GYA, 10 μM MP, pH 7.4
# Protocol: Nitration efficiency, defined as the moles of nitrated GYA peptide formed per mole of peroxynitrite added, was determined at a fixed concentration of 10 μM MP or Cu,Zn SOD subunit, or 1 mM CO2 as described below. Increasing amounts of peroxynitrite were added in a sequential manner in order to determine whether nitration efficiency varied with concentration and to determine whether nitration catalysis was maintained with multiple additions (see INSET). Nitration efficiency was calculated for each peroxynitrite addition; the values shown are the average of all nine peroxynitrite additions. Absorbance changes were monitored simultaneously at 380, 430, and 460 nm.
# (§2) For nitration of GYA peptide (see FIG. 6), reaction solutions contained 2 mM GYA and 10 μM of the indicated MP in 1.4 ml of 0.1 M potassium phosphate, pH 7.4 at 37° C. Comparisons with two previously characterized nitration catalysts, human Cu,Zn superoxide dismutase (hCu,Zn SOD) and carbon dioxide, were made using 10 μM of SOD subunit and 25 mM potassium bicarbonate, respectively, which was pH-adjusted to 7.4. This level of bicarbonate results in rapid saturation of the solution with carbon dioxide (˜1 mM). Solutions were placed into a rapidly stirred cuvette and nine bolus additions (50 μM×3, 100 μM×3, and 200 μM×3) of peroxynitrite were made sequentially while the absorbance was monitored. Increasing amounts of peroxynitrite were added in a sequential manner in order to determine whether nitration efficiency varied with concentration and to determine whether nitration catalysis was maintained with multiple additions (see FIG. 6 inset). Nitration efficiency was defined as the amount of nitropeptide formed per amount of peroxynitrite added and was calculated for each peroxynitrite addition; the values shown are the average of all nine peroxynitrite additions. The absorbance changes associated with nitrotyrosine peptide production were monitored simultaneously at 380, 430, and 460 nm. The extinction coefficients for nitrated GYA at pH 7.4 are 4,400 M^−1cm^−1 at 430 nm and 2,200 M^−1cm^−1 at both 380 and 460 nm. […] Wavelengths used to quantify nitrotyrosine production were chosen to minimize interference by the particular metalloporphyrin used. Experiments using HPA as a nitration target (FIG. 7) contained 8 mM HPA in either 0.1 M potassium phosphate, pH 7.4 or 0.1 M sodium borate, pH 9.1.
# The relative abilities of several MPs to enhance nitration of the tripeptide GYA was compared using 10 μM MP and sequential bolus additions of 50 μM (×3), 100 μM (×3), and 200 μM (×3)peroxynitrite (FIG. 6, inset).
# [4] = Oxidation of metalloporphyrins by peroxynitrite, stopped-flow spectroscopy; format: biochemical; conditions: 37° C., 0.1 M potassium phosphate pH 7.4, pseudo-first order, ± standard error
# Protocol: Peroxynitrite (in 10 mM NaOH) was rapidly mixed with the indicated MPs in 0.1 M potassium phosphate, pH 7.4 at 37° C. using a stopped-flow apparatus as described in Methods. […] A final concentration of 40 μM peroxynitrite was added to 8 μM of each of the MPs MnTBAP, MnPPIX, and FePPIX. […] INSET: Apparent rate constants for oxidation of 8 μM MnTBAP are plotted as a function of peroxynitrite concentration to illustrate how the rate constants listed in Table III were determined.
# Rates of metal loporphyrin oxidation by peroxynitrite were determined using a Bio Sequential SX-18MV Applied Photophysics stopped-flow spectrofluorometer. Solutions of metalloporphyrins in 0.1 M potassium phosphate buffer, pH 7.4 were placed in one syringe and solutions of peroxynitrite in 10 mM NaOH were placed in a second syringe, both of which were submerged in a water bath at 37° C. Changes in metalloporphyrin absorbance as a function of time were recorded following triggering of syringe firing and solution mixing (instrument dead time=2 msec); a total of 1000 data points were collected over intervals ranging from 50 msec to 3 sec. […] Because the absorbance changes associated with loss of +3 forms were greater, rates of metalloporphyrin oxidation were determined by monitoring the disappearance of Mn(III)TMPyP at 462 nm, Mn(III)TBAP at 468 nm, Mn(III)PPIX at 466 nm, and Fe(III)PPIX at 464 nm. Absorbance changes as a function of time were fitted to the equation describing a first order process. The concentration of peroxynitrite was varied from five-fold to forty-fold greater than the fixed metalloporphyrin concentration in order to obtained pseudo first-order conditions (see Table III). Each concentration was injected 10 times and data were averaged automatically prior to fitting.
# Rate constants for stoichiometric metalloporphyrin oxidation by peroxynitrite at 37° C. were determined under pseudo-first order reaction conditions by varying the amount of peroxynitrite added to a fixed concentration of metalloporphyrin (Table III).
# In Table III, the rate of peroxynitrite-mediated oxidation of metalloporphyrins at 37° C. was determined. Apparent rate constants were determined by stopped-flow spectroscopy and plotted versus the peroxynitrite concentration (as shown for MnTBAP in FIG. 4 inset) to determine the bimolecular rate constant in M^−1s^−1±standard error. FePPIX was monitored at 387 nm, MnPPIX at 464 nm, and MnTBAP at 470 nm.
# [5] = MP-catalyzed peroxynitrite decomposition monitored at 302 nm; format: biochemical; conditions: 100 μM peroxynitrite
# Protocol: Peroxynitrite (100 μM) was added to rapidly stirred cuvettes at 37° C. containing the indicated concentrations of MPs in 0.1 M potassium phosphate, pH 7.4. Ascorbate was added to 150 μM where indicated. Peroxynitrite decomposition was monitored at 302 nm using a Hewlett-Packard diode-array spectrophotometer. Apparent rates (kapparents^−1, average of n=3) were plotted versus MP concentration to determine rate constants in M^−1s^−1.
# Reactions contained the indicated concentration of FeTCPPin 1.4 ml of 0.1 M potassium phosphate, pH 7.4 in the absence or presence to 150 μM ascorbic acid. Peroxynitrite (100 μM) was added to rapidly stirred cuvettes at 37° C. and the decay of peroxynitrite was monitored continuously at 302 nm. Decay data were fitted to the equation describing first order decay to obtain apparent decay rates (kapparent sec^−1). Apparent decay rates as a function of FeTCPP were fitted by linear regression and the rate constant was obtained slope of the line.
# Peroxynitrite (100 μM) decomposition was determined at 302 nm using a Hewlett-Packard diode-array spectrophotometer fitted with a temperature-controlled cuvette chamber and a water-driven cuvette stirrer. Bolus additions of peroxynitrite were made to vigorously stirred cuvettes containing varying concentrations of MPs (see Table III) while data were collected at a rate of ten points/sec. […] Each reaction was repeated three times and only the first additions of peroxynitrite were averaged. Data were exported for fitting and plotting. Apparent rates of peroxynitrite decomposition were plotted as a function of metalloporphyrin concentration (as shown in FIG. 5) to determine concentration-independent rate constants at 37° C.
# Rates of peroxynitrite (100 μM) decomposition were determined at different MP concentrations. Ascorbate was added to 150 μM where indicated. […] Apparent rate constants were plotted versus MP concentration (as in FIG. 5A,B) to determine true rate constants in M^−1s^−1±standard error.
# [6] = MP-catalyzed nitration of HPA: effect of pH, reductants and serum; format: biochemical; conditions: for enhancement of nitration yield at pH 9.1 / effect of ascorbate on nitration enhancement: 8 mM HPA, 10 μM MP; for enhancement of nitration yield at pH 9.1: 0.1 M sodium borate pH 9.1, versus non-catalyzed; for effect of ascorbate and GSH on nitration enhancement: concentrations which eliminated non-catalyzed nitration; for effect of serum on nitration enhancement: fresh human serum 1:10 added prior to peroxynitrite; for effect of ascorbate on nitration enhancement: ascorbate 150 μM, pH 7.4
# Protocol: Single additions of 100 μM peroxynitrite were made to reactions containing ascorbate or GSH. Three sequential additions of 100 μM peroxynitrite were made to all other reactions.
# as §2, with “This” for “For nitration of GYA peptide (see FIG. 6), reaction solutions contained 2 mM GYA and 10 μM of the indicated MP in 1.4 ml of 0.1 M potassium phosphate, pH 7.4 at 37° C. Comparisons with two previously characterized nitration catalysts, human Cu,Zn superoxide dismutase (hCu,Zn SOD) and carbon dioxide, were made using 10 μM of SOD subunit and 25 mM potassium bicarbonate, respectively, which was pH-adjusted to 7.4. This”
"oxidation by H2O2 (0.5 mM H2O2, 20 min)",Structure (SMILES),rate of GSH oxidation [1] [µM/min],Rate of Ascorbate Oxidation [2] [µM/min],effect on nitration [3],Rate Constants for Oxidation of MPs by Peroxynitrite [4] [M⁻¹ s⁻¹],"Rate Constants for MP-Catalyzed Decomposition of Peroxynitrite (pH 7.4, 37° C.) ([5]; absence of added reductants)",enhancement of nitration yield at pH 9.1 [6],effect of ascorbate and GSH on nitration enhancement [6],effect of serum on nitration enhancement [6],effect of HOCl on the MP (50 μM HOCl),"ascorbate concentration giving complete inhibition of nitration enhancement ([6]; dose-dependent, not shown) [mM]",effect of ascorbate on nitration enhancement [6],"Rate Constants for MP-Catalyzed Decomposition of Peroxynitrite (pH 7.4, 37° C.) ([5]; plus ascorbate 150 μM)"
,"C[n+]1ccc(-c2c3nc(c(-c4cc[n+](C)cc4)c4ccc([n-]4)c(-c4cc[n+](C)cc4)c4nc(c(-c5cc[n+](C)cc5)c5ccc2[n-]5)C=C4)C=C3)cc1.Cc1ccc(S(=O)(=O)[O-])cc1.Cc1ccc(S(=O)(=O)[O-])cc1.Cc1ccc(S(=O)(=O)[O-])cc1.Cc1ccc(S(=O)(=O)[O-])cc1.[Cu+2] [CuTMPyP, Copper (II) meso-tetra-(N-methyl-4-pyridyl)-porphine tetra tosylate]",29,6.50 ± 0.32,small but reproducible inhibitory effect,,,,,,,,,
,"C=CC1=C(C)c2cc3[n-]c(cc4nc(cc5[n-]c(cc1n2)c(C)c5CCC(=O)O)C(CCC(=O)O)=C4C)c(C)c3C=C.[Fe] [FePPIX, Iron (III) protoporphyrin IX dichloride]",,1.33 ± 0.07,,1e+06,3.7×10^5 M^−1s^−1 and 3.7 × 10^5 ± 0.2 M^−1s^−1,5.7 fold,much less inhibitory effect,largely eliminated the nitration enhancement,,,,
did not appear to oxidize,"C[n+]1ccc(-c2c3nc(c(-c4cc[n+](C)cc4)c4ccc([n-]4)c(-c4cc[n+](C)cc4)c4nc(c(-c5cc[n+](C)cc5)c5ccc2[n-]5)C=C4)C=C3)cc1.[Cl-].[Cl-].[Cl-].[Cl-].[Cl-].[Fe+3] [FeTMPyP, Iron (III) meso-tetra-(N-methyl-4-pyridyl)-porphine chloride]",22,146.20 ± 7.2,,,7.9 × 10^5 ± 0.9 M^−1s^−1,10.7 fold,much less inhibitory effect,much less effect,appeared to destroy the metal-pyrrole center,1.5,,
,"C=CC1=C(C)c2cc3[n-]c(cc4[n-]c(cc5nc(cc1n2)C(C)=C5C=C)c(C)c4CCC(=O)[O-])c(CCC(=O)[O-])c3C.[H+].[H+].[Mn+2] [MnPPIX, Manganese (III) protoporphyrin IX dichloride]",,0.96 ± 0.05,,99000,,did not enhance nitration yields,largely prevented the enhancement of nitration,largely eliminated the nitration enhancement,,,pronounced inhibitory effect,
,"O=C(O)c1ccc(-c2c3nc(c(-c4ccc(C(=O)O)cc4)c4ccc([n-]4)c(-c4ccc(C(=O)O)cc4)c4nc(c(-c5ccc(C(=O)O)cc5)c5ccc2[n-]5)C=C4)C=C3)cc1.[Mn+3] [MnTBAP, Manganese (III) tetra-(4-benzoic acid)-porphyrin]",,,,25000,no acceleration,did not enhance nitration yields,largely prevented the enhancement of nitration,largely eliminated the nitration enhancement,,,pronounced inhibitory effect,3.3 × 10^4 ± 0.4 M^−1s^−1
